We go through 35 compounds from US20240000746A1, “New Cooling Agents and Preparations Containing Them” (Symrise AG, priority 2020, published 2024).

For orientation: EC50 means the midpoint of the concentration-response curve.

One experiment addresses T1, human TRPM8 receptor (Homo sapiens, UniProt Q7Z2W7).
T1 construct: expressed in transfected cells
Nature of the experiment: Assay on TRPM8 modulators: Ca2+ signal (Fluo-4) in HEK293 cells stably transfected with human TRPM8. The conditions noted are these: for EC50: HEK293-TRPM8 cells, Fluo-4, read-out: Activity in vitro assay (EC50). Also noted: Relative TRPM8 activation (%): concentration or dose not given beside the values. The experiment is classed as cell-based. From the text:
The starting point for cloning the human TRPM8 receptor is an LnCaP cDNA bank. This is commercially available (e.g. BioChain, Hayward, USA) or can be produced from the androgene-sensitive human prostate adenocarcinoma cell line LnCaP (e.g. ATCC, CRL1740 or ECACC, 891 1021 1) using standard kits.
The coding TRPM8 sequence (see e.g. http://www. ncbi.nlm.nih.gov/entrez/viewer.fcgi?db=nuccore&id=109689694) can be PCR amplified and cloned using standard methods. The human TRPM8 gene isolated in this way was used to produce the plasmid plnd_M8. Alternatively, the TRPM8 gene can also be produced synthetically.
As a test cell system, a stably transfected HEK293 cell line was produced with human TRPM8 DNA. Preference is given to HEK293, which offers the possibility of inducing TRPM8 expression with tetracycline via the introduced plasmid.
A test similar to the one already described in the literature by Behrendt H. J. et al., Br. J. Pharmacol. 141, 2004, 737-745, is performed. The agonisation or antagonisation of the receptor can be quantified by means of a Cab-sensitive dye (e.g. FURA, Fluo-4 etc.). Agonists alone cause an increase in the Ca^2+ signal; antagonists cause a reduction in the Ca^2+ signal in the presence of e.g. menthol (in each case detected via the dye Fluo-4, which has different fluorescence properties due to Ca^2+ ions).
First, a fresh culture of transformed HEK cells is prepared in cell culture flasks in a manner known per se. The HEK293-TRPM8 test cells are detached from the cell culture flasks using trypsin and 40,000 cells/well are seeded with 100 μl medium in 96-hole plates (Greiner #655948 poly-D-lysine-coated). Tetracycline is added to the growth medium to induce receptor TRPM8 (DMEM/HG, 10% FCS tetracycline-free, 4 mM L-glutamine, 15 μg/ml blasticidin, 100 μg/ml hygromycin B, 1 μg/ml tetracycline).
The following day, the cells are loaded with Fluo-4AM dye and the test is performed. The procedure is as follows: Addition of 100 μl/well staining solution Ca-4 Kit (RB 141, Molecular Devices) to each 100 μl medium (DMEM/HG, 10% FCS tetracycline-free, 4 mM L-glutamine, 15 μg/ml blasticidin, 100 μg/ml hygromycin B, 1 μg/ml tetracycline).
Incubation in incubator, 30 minutes/37° C./5% CO2, 30 minutes/RT.
Preparation of the test substances (different concentrations in 200 μl HBSS buffer), as well as positive controls (different concentrations of menthol, icilin or lonomycin in 200 μl HBSS buffer) and negative controls (only 200 μl HBSS buffer) addition of the test substances in amounts of 50 μl/well and measurement of the fluorescence change (e.g. in the assay device FLIPR, Molecular Devices or NovoStar, BMG) at 485 nm excitation, 520 nm emission, and evaluation of the potency of the different substances/concentrations and determination of the EC50 values.
The test substances are used in triplicates in concentrations of 0.1-200 μM in the assay. Normally, the compounds are kept ready in DMSO solutions and diluted down to a maximum DMSO concentration of 2% for the assay.
With the aid of the assay described, the activity of the active substances is determined in relation to activation of the TRPM8 channel. This is done in a concentration-dependent manner. As a standard, 6 to 10 concentrations are measured for each active substance. From the determined activity values, the EC50 value can be determined as the inflection point of the sigmoidal curve using a mathematical method (4-parameter or 5-parameter logistic curve fitting). These are standard methods of biochemistry that are quite familiar to the skilled person.

In another experiment the test system is oral cavity. Nature of the experiment: Sensory tasting of cooling intensity by trained panellists. The experiment is classed as in vivo, human. The conditions noted are these: 5 ppm in 5% sugar solution, tasted 40 seconds, rated after one minute, scale 1 (very weak) to 9 (very strong). The protocol:
In order to quantify the cooling effect, comparative tests are carried out using menthan-3-carboxylic acid-N-ethylamide as a reference. For these comparative tests, the skilled person replaces the compound or compounds to be used according to the invention with menthan-3-carboxylic acid-N-ethylamide (also referred to as WS-3). Then the intensities of the cooling effects of the respective compounds or active substances are sensory evaluated by trained panellists (n=10 to 11) as described below and compared with each other.
The investigation of the cooling intensity was carried out as follows: Test solutions containing 5 ppm of the compounds of the invention were each tasted in a 5% sugar solution as well as a corresponding solution containing 30 ppm of the reference substance WS-3. […] The corresponding test solutions were tasted by the panellists for a time of exactly 40 seconds, rinsing the entire oral cavity with the corresponding test solution and then spitting out the sample or reference solution. Following the tasting, the test persons rated the respective cooling intensity after one minute according to a scale from 1 (very weak) to 9 (very strong).

Values joined by “and” are separate entries in the source; they are usually repeats but may differ in a detail not shown here. Equal values may be shown once.

T1 sequence (Q7Z2W7 whole entry): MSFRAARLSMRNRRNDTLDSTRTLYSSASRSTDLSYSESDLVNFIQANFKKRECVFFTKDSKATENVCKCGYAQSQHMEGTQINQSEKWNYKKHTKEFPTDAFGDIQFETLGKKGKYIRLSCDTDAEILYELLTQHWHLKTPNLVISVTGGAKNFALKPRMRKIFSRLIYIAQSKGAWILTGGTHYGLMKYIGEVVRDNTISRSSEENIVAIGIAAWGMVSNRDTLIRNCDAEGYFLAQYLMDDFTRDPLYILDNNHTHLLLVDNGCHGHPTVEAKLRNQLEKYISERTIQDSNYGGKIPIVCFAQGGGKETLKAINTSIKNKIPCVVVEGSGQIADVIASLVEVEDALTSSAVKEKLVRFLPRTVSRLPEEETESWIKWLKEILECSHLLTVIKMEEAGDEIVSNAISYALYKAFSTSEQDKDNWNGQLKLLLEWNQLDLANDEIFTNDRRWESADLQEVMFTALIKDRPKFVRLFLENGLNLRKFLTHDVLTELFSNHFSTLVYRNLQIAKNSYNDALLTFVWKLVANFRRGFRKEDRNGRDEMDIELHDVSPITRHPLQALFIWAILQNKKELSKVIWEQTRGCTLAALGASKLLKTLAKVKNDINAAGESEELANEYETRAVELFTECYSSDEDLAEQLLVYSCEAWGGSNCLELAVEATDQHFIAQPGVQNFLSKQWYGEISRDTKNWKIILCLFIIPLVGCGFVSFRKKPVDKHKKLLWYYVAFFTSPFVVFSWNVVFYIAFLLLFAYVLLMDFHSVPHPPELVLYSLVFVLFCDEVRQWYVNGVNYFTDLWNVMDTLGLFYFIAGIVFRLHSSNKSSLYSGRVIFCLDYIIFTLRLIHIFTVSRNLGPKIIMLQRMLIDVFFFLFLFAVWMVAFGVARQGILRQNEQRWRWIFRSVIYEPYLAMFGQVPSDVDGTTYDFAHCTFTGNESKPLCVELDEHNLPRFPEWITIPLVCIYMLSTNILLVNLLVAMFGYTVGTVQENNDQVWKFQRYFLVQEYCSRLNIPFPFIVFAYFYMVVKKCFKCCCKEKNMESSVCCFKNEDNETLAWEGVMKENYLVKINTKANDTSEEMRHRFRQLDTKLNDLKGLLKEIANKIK

With `CC1CC(C)CN(c2cc(CNCc3cccc4c3OCO4)ccn2)C1` (centres unmarked) [Example 16], the concentration giving a half-maximal response (EC50) on human TRPM8 receptor came to 2530 nM.

Consider `CC(C)C(NCc1cccc2c1OCO2)c1ccnc(N2CCCCC2)c1` (centres unmarked) [Example 11], for which, at human TRPM8 receptor, the concentration for a half-maximal effect (EC50) came to 8350 nM.

As for `CCCC1CCN(c2cc(CNCc3cccc4c3OCO4)ccn2)CC1` [Compound 18 a], on human TRPM8 receptor, the “Relative TRPM8 activation (%)” value was −0.8%.

Regarding `CC1(C)CCN(c2cc(CNCc3cccc4c3OCO4)ccn2)CC1` [Example 15], the EC50 on human TRPM8 receptor is 2630 nM.

Regarding `CC1CCN(c2cc(CNCc3cccc4c3OCO4)ccn2)CC1` [Example 12], on human TRPM8 receptor, the EC50 was 2010 nM.

With `Cc1ccc(N2CCC(C(=O)NCc3cccc4c3OCO4)CC2)nc1` [Compound 5 a], the “Relative TRPM8 activation (%)” value on human TRPM8 receptor is 2.4%.

As for `CCN(Cc1ccnc(N2CCC(C)CC2)c1)Cc1cccc2c1OCO2` [Compound 19 a], at human TRPM8 receptor, the “Relative TRPM8 activation (%)” value is reported as 3.4%.

`COc1ccc(CNCc2ccnc(N3CCSCC3)c2)cc1` [Example 58]: the EC50 on human TRPM8 receptor turned out to be 15800 nM.

Regarding `CCOc1cccc(CNCc2ccnc(N3CCCCC3)c2)c1OC` [Example 24], the concentration for a half-maximal effect (EC50) at human TRPM8 receptor worked out at 1110 nM.

Take `COc1ccc(CNCc2ccnc(N3CCCCC3)c2)cc1` [Example 27]: at human TRPM8 receptor, the concentration giving a half-maximal response (EC50) is 100 nM and ≤ 1000 nM.

As to `CC1CCCCN1c1cc(CNCc2cccc3c2OCO3)ccn1` (centres unmarked) [Example 14], the EC50 on human TRPM8 receptor turned out to be 330 nM.

Consider `c1cc(CNCc2ccnc(-n3cccc3)c2)c2c(c1)OCO2` [Compound 22 a], for which the “Relative TRPM8 activation (%)” value on human TRPM8 receptor worked out at 3%.

On to `c1cc(CNCc2ccnc(N3CCSCC3)c2)c2c(c1)OCO2` [Example 22], for which, on human TRPM8 receptor, the concentration for a half-maximal effect (EC50) is 1190 nM.

As for `COc1ccc(C(C)NCc2ccnc(N3CCCCC3)c2)cc1` (centres unmarked) [Compound 85], the Cooling intensity in the experiment with oral cavity came to 2.1.

For `CC1CCCN(c2cc(CNCc3cccc4c3OCO4)ccn2)C1` (centres unmarked) [Example 13], the EC50 at human TRPM8 receptor is 600 nM.

With `c1cc(CNCc2cc3ccccc3o2)c2c(c1)OCO2` [Compound 32 a], the “Relative TRPM8 activation (%)” value at human TRPM8 receptor amounted to 1.3%.

Turning to `CC(NCc1cccc2c1OCO2)c1ccnc(N2CCCCC2)c1` (centres unmarked) [Example 8], the EC50 at human TRPM8 receptor was determined as 150 nM.

In the case of `c1ccc(-c2cc(CNCc3cccc4c3OCO4)cs2)cc1` [Compound 43 a], at human TRPM8 receptor, the “Relative TRPM8 activation (%)” value stood at 0%.

Consider `CCC1CCCN(c2cc(CNCc3cccc4c3OCO4)ccn2)C1` (centres unmarked) [Example 18], for which the concentration giving a half-maximal response (EC50) on human TRPM8 receptor was determined as 2010 nM.

Turning to `COc1cccc(CNCc2ccnc(N3CCCCC3)c2)c1` [Example 49], the EC50 on human TRPM8 receptor stood at 600 nM.

With `COc1ccc(CNCc2cccc(N3CCCC3)c2)cc1` [Example 64], the 50% effective concentration (EC50) at human TRPM8 receptor amounted to 1770 nM.

On to `CCNC(=O)[C@@H]1C[C@H](C)CC[C@H]1C(C)C` [WS-3, L-menthanecarboxylic acid-N-ethylamide, reference compound], for which the EC50 on human TRPM8 receptor came to 1720 nM.

For the compound `c1ccc(CNCc2ccnc(N3CCCCC3)c2)cc1` [Example 39], the EC50 at human TRPM8 receptor stood at 60 nM.

Turning to `c1cc(CCNCCc2ccnc(N3CCCCC3)c2)c2c(c1)OCO2` [Example 34], the EC50 at human TRPM8 receptor worked out at 800 nM.

For `c1cc(CNCc2ccnc(N3CCCCC3)c2)c2c(c1)OCO2` [Example 1], on human TRPM8 receptor, the concentration giving a half-maximal response (EC50) is 115 nM.

Consider `CCOc1cccc(CNCc2ccnc(N3CCCCC3)c2)c1OCC` [Example 25], for which the EC50 at human TRPM8 receptor worked out at 5860 nM.

With `c1ccc(-c2cccc(CNCc3cccc4c3OCO4)c2)nc1` [Compound 22 c], the “Relative TRPM8 activation (%)” value on human TRPM8 receptor was found to be 3.6%.

`COc1cccc(CNCc2ccnc(N3CCCCC3)c2)c1OC` [Example 23]: on human TRPM8 receptor, the 50% effective concentration (EC50) came to 760 nM.

As to `CSc1cc(CNCc2cccc3c2OCO3)ccn1` [Example 29], the EC50 on human TRPM8 receptor was determined as 6500 nM.

Take `O=C(NCc1cccc2c1OCO2)c1ccnc(N2CCCCC2)c1` [Compound 51 a]: at human TRPM8 receptor, the “Relative TRPM8 activation (%)” value came to 0%.

`COc1ccc(CNCc2ccnc(N3CCCCC3)c2)cc1` [Compound 87]: the EC50 on human TRPM8 receptor is 6.95 nM.

Turning to `CC1(C)CCCN(c2cc(CNCc3cccc4c3OCO4)ccn2)C1` [Example 17], the concentration for a half-maximal effect (EC50) on human TRPM8 receptor is 720 nM.

Regarding `c1ccc(-c2cc(CNCc3cccc4c3OCO4)co2)cc1` [Compound 31 a], at human TRPM8 receptor, the “Relative TRPM8 activation (%)” value was found to be 0%.

On to `c1cc(CNCc2ccnc(N3CCOCC3)c2)c2c(c1)OCO2` [Example 2], for which, at human TRPM8 receptor, the EC50 was determined as 13000 nM.

As for `Cc1ccc(CNCc2ccnc(N3CCCCC3)c2)cc1` [Example 41], on human TRPM8 receptor, the EC50 is 150 nM.
